The record followed here is patent US20080306007A1, “AGENTS FOR PROPHYLAXIS OR TREATMENT OF NEUROLOGICAL RELATED DISEASES AND CONDITIONS” (Newcastle Innovation Limited, priority 2007, published 2008).

Assay [1] relates to synaptosomes (SV retrieval from the plasma membrane). As to the kind of experiment: FM2-10 SV internalisation assay (purified SVs from synaptosomes). In kind it is cell-based, rat. As to the method:
(§1) Loading of FM2-10 (Molecular Probes) into recycling synaptosomal SVs was measured as previously described. Data is presented as Ca^2+-dependent FM2-10 unloading, which is the difference between release after loading in plus and minus Ca^2+ solutions. Where indicated, synaptosomes were preincubated with penetratin peptide for 30 min prior to stimulation of FM2-10 loading. […] The same assay was used to monitor the effect of penetratin peptide on SV exocytosis. However, in this instance, the synaptosomes were loaded with FM2-10 in plus Ca^2+ Krebs-like solution and, where indicated, were preincubated with penetratin peptide for 30 min prior to stimulation of FM2-10 unloading. Data is presented as Ca^2+-dependent FM2-10 unloading. The SV internalisation assay was performed as previously described.
If SVE was arrested before SV fission occurred, […]. SVs were purified and their fluorescence values were corrected for dye uptake in the absence of Ca^2+ (Ca^2+-dependent) and normalised to control (n=3, mean ±s.e.m.).

Assay [2] relates to synaptosomes (SV exocytosis). As to the kind of experiment: KCl-evoked Ca2+-dependent glutamate release assay in synaptosomes. In kind it is cell-based, rat. Particulars: peptide preincubated 30 min; KCl stimulation. As to the method: In all SV recycling studies synaptosomes were prepared from rat cerebral cortex by centrifugation on discontinuous percoll gradients (Dunkley et al. 1986). The glutamate release assay was performed as described before (Cousin and Robinson 2000a). Data is presented as Ca^2+-dependent glutamate release, calculated as the difference between release in plus and minus Ca^2+ solutions. Penetratin peptides (Genemed Synthesis) were preincubated with the synaptosomes for 30 min before stimulation and had no effect on Ca^2+-independent release of glutamate.
A block in SV turnover cannot be ascribed to an inhibition of SVE until an effect on exocytosis has been excluded. Two independent exocytosis assays were conducted to assess this: endogenous glutamate release and FM2-10 unloading. Neither the DynI769-784AA nor DynI769-784EE peptide had any significant effect on KCl-evoked Ca^2+-dependent glutamate release (DynI769-784AA […]±8.4% of control; DynI769-784EE […]±9.5% of control, FIG. 5c). Both peptides had small effects on FM2-10 unloading evoked by 30 mM KCl (DynI769-784AA −81.1±0.8% of control; DynI769-784EE −82.3±0.6% of control, FIG. 5d). Finally, the extent of SVE inhibition by the peptides was quantified by calculating “retrieval efficiency” which takes into account prior exocytosis; a value of less than one indicating a selective SVE inhibition. […]

Assay [3] has as its system synaptosomes (SV exocytosis). Put plainly: FM2-10 unloading (SV exocytosis) assay in synaptosomes. It is filed as cell-based, rat. Conditions: evoked by 30 mM KCl; peptide preincubated 30 min before unloading. The protocol: as §1
A block in SV turnover cannot be ascribed to an inhibition of SVE until an effect on exocytosis has been excluded. Two independent exocytosis assays were conducted to assess this: endogenous glutamate release and FM2-10 unloading. […] Finally, the extent of SVE inhibition by the peptides was quantified by calculating “retrieval efficiency” which takes into account prior exocytosis; a value of less than one indicating a selective SVE inhibition. […]

The target of assay [4] is T1, dynamin I-syndapin I complex (Rattus norvegicus, UniProt Q9Z0W5).
T1 construct: Syndapin I or dynamin I were immunoprecipitated from nerve terminals; from tissue; host or cells: rat brain crude (P2) synaptosomes
T1 sequence (Q9Z0W5 whole entry, one chain of several): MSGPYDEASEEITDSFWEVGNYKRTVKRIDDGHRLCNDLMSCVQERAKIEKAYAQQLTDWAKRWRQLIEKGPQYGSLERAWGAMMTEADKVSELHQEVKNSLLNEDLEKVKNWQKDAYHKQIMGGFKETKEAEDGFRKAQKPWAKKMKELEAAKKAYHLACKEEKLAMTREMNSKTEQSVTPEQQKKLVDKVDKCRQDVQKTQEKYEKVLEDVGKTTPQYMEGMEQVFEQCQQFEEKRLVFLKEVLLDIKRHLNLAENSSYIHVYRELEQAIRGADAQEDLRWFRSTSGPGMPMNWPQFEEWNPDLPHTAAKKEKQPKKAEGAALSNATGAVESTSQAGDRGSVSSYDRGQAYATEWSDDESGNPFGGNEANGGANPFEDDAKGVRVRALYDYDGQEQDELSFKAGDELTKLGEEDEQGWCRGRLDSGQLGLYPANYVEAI
As to the kind of experiment: Peptide disruption of immunoprecipitated dynamin I-syndapin I complex from nerve terminals. Particulars: syndapin I or dynamin I immunoprecipitates incubated with peptide. It is filed as binding. The protocol:
To determine whether the phospho-box sequence might account for syndapin I recruitment to dynamin I, the ability of a DynI769-784AA peptide (FIG. 5a) to disrupt their interaction was tested. Syndapin I or dynamin I were immunoprecipitated from nerve terminals and the individual protein complexes were incubated with DynI769-784AA (SEQ ID No. 8) peptide (see below). Their interaction in both cases was reduced by the peptide, as indicated by the specific release of either binding partner from the bead-bound complex (FIG. 4c). No elution of endophilin I (FIG. 4c) or amphiphysin I (data not shown) was detected, highlighting the specificity of the interaction.
Crude (P2) synaptosomes were prepared from rat brain and lysed as described in Example 1.1.3. Synaptosome lysates were incubated with 5 μg of anti-syndapin I or […] pre-bound to protein G-sepharose (Roche) for 3 h at 4° C. Beads were washed with ice-cold PBS, eluted in SDS-PAGE sample buffer and blotted with anti-syndapin I, anti-endophilin I and anti-dynamin I antibodies.

Turning to “DynI769-784AA: Dynamin I phospho-box mimetic peptide (residues 769-784), AA mutant, tagged with penetratin heptapeptide RRMKWKK (RRMKWKKPAGRRAPTSAPTPQRR; listed as Rattus norvegicus)”, the “inhibition of FM2-10 accumulation in SVs” value in assay [1] is given as “approximately 35%”. Besides, the “FM2-10 accumulation in purified SVs (Ca2+-dependent)” value in assay [1] (n=3, mean ± s.e.m.) is given as 64.9±5.5 % of control. The “KCl-evoked Ca2+-dependent glutamate release” value in assay [2] was 92.5±8.4 % of control. In addition, in assay [3], the FM2-10 unloading is given as 81.1±0.8 % of control. Further, the “dynamin I-syndapin I interaction (release of binding partner from bead-bound complex)” value in assay [4] is recorded as “reduced”.
